Where “and” joins values, the source holds several entries; their conditions need not be identical. Identical values can stand only once.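 Dose response: 5 concentrations. Exposure: 48 h. Format: 96-well plates. Endpoint: linear interpolation; highest concentration if not reached. Here, GI50 denotes the concentration required for 50% inhibition of growth.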 Calls of active or inactive are those of the source. Rule as the data show it: active = GI50 up to about 1.1 µM and inactive = higher.
Assays:
Assay in all cases: growth of human tumour cells (NCI), 48 h
786-0 = system: 786-0
ACHN = system: ACHN
CAKI-1 = system: CAKI-1
HCT-15 = system: HCT-15
LOX IMVI = system: LOX IMVI
NCI-H522 = system: NCI-H522
OVCAR-3 = system: OVCAR-3
OVCAR-4 = system: OVCAR-4
OVCAR-8 = system: OVCAR-8
RPMI-8226 = system: RPMI-8226
SF-295 = system: SF-295
SK-MEL-28 = system: SK-MEL-28
SN12C = system: SN12C
SNB-75 = system: SNB-75
U-251 = system: U-251
MDA-N = system: MDA-N
NCI/ADR-RES = system: NCI/ADR-RES
T47D = system: T47D
MCF7 = system: MCF7

Oc1ccc2c3c1OC1C(=NN=C4CCC5(O)C6Cc7ccc(O)c8c7C5(CCN6CC5CC5)C4O8)CCC4(O)C(C2)N(CC2CC2)CCC314 (centres undefined)
GI50 (786-0): 24.9 µM (inactive) | GI50 (ACHN): > 100 µM (inactive) | GI50 (CAKI-1): > 100 µM (inactive) | GI50 (HCT-15): > 100 µM | GI50 (LOX IMVI): 20 µM (inactive) | GI50 (NCI-H522): 21.4 µM (inactive) | GI50 (OVCAR-3): 18.5 µM (inactive) | GI50 (OVCAR-4): 25.6 µM (inactive) | GI50 (OVCAR-8): 28.5 µM (inactive) | GI50 (RPMI-8226): 28.8 µM (inactive) | GI50 (SF-295): 17 µM (inactive) | GI50 (SK-MEL-28): 21.9 µM (inactive) | GI50 (SN12C): > 41.3 µM (inactive) | GI50 (SNB-75): 41.6 µM (inactive) | GI50 (U-251): 17.7 µM (inactive)

COC(=O)C1OC(O[C@H]2CC[C@]3(C)[C@H]4CC=C5[C@@H]6CC(C)(C)CC[C@]6(C(=O)OC6OCC(O)C(O)C6OC6OC(C)C(OC7OCC(O)C(O)C7O)C(O)C6O)[C@H](O)C[C@@]5(C)[C@]4(C)CC[C@H]3C2(C)C)C(O)C(O)C1O (some centres undefined)
GI50 (786-0): 5.56 µM (inactive) and 8.55 µM (inactive) | GI50 (ACHN): 4.35 µM (inactive) and 4.5 µM (inactive) | GI50 (CAKI-1): 2.61 µM (inactive) and 4 µM (inactive) | GI50 (HCT-15): 12.9 µM and 13.7 µM | GI50 (LOX IMVI): 3.36 µM (inactive) and 6.43 µM (inactive) | GI50 (MDA-N): 1.87 µM (inactive) and 3.43 µM (inactive) | GI50 (NCI-H522): 1.78 µM (inactive) and 2.63 µM (inactive) | GI50 (NCI/ADR-RES): 4.08 µM (inactive) and 3.24 µM (inactive) | GI50 (OVCAR-3): 11.8 µM (inactive) and 14.8 µM (inactive) | GI50 (RPMI-8226): 4.51 µM (inactive) and 5.06 µM (inactive) | GI50 (SF-295): 3.95 µM (inactive) and 3.91 µM (inactive) | GI50 (SK-MEL-28): 1.87 µM (inactive) and 2.13 µM (inactive) | GI50 (SN12C): 1.84 µM (inactive) and 1.85 µM (inactive) | GI50 (SNB-75): 4.81 µM (inactive) and 8.53 µM (inactive) | GI50 (T47D): 8.28 µM (inactive) and 5.32 µM (inactive) | GI50 (U-251): 5.55 µM (inactive) and 6.11 µM (inactive)

COc1ccc(OC)c(NC(=O)CCC/C(CC(=O)c2ccc(O)c(OC)c2)=N\Nc2ccc([N+](=O)[O-])cc2)c1
GI50 (786-0): 27.6 µM (inactive) | GI50 (ACHN): 80.4 µM (inactive) | GI50 (CAKI-1): > 100 µM (inactive) | GI50 (HCT-15): > 100 µM | GI50 (LOX IMVI): 40.8 µM (inactive) | GI50 (NCI-H522): 45.9 µM (inactive) | GI50 (OVCAR-3): > 100 µM (inactive) | GI50 (OVCAR-4): > 100 µM (inactive) | GI50 (OVCAR-8): 28.2 µM (inactive) | GI50 (RPMI-8226): > 100 µM (inactive) | GI50 (SF-295): 52.8 µM (inactive) | GI50 (SN12C): > 100 µM (inactive) | GI50 (SNB-75): 22.5 µM (inactive) | GI50 (U-251): 32.1 µM (inactive)

O=C1NC2(CCN(CCCC3(c4ccc(F)cc4)OCCO3)CC2)Oc2ccccc21
GI50 (786-0): > 100 µM (inactive) | GI50 (ACHN): > 100 µM (inactive) | GI50 (HCT-15): 71.4 µM | GI50 (LOX IMVI): > 100 µM (inactive) | GI50 (MCF7): 86.7 µM (inactive) | GI50 (NCI/ADR-RES): 97.9 µM (inactive) | GI50 (OVCAR-4): > 100 µM (inactive) | GI50 (OVCAR-8): > 100 µM (inactive) | GI50 (RPMI-8226): 61 µM (inactive) | GI50 (SF-295): > 100 µM (inactive) | GI50 (SK-MEL-28): > 100 µM (inactive) | GI50 (SN12C): > 100 µM (inactive) | GI50 (SNB-75): 43.1 µM (inactive) | GI50 (T47D): 35.8 µM (inactive) | GI50 (U-251): > 100 µM (inactive)

O=C(C(=O)N1CC2C=CC1CC2)c1c[nH]c2ccccc12 (centres undefined)
GI50 (786-0): > 100 µM (inactive) | GI50 (ACHN): > 100 µM (inactive) | GI50 (CAKI-1): > 100 µM (inactive) | GI50 (HCT-15): > 100 µM | GI50 (LOX IMVI): > 100 µM (inactive) | GI50 (NCI-H522): > 100 µM (inactive) | GI50 (OVCAR-4): > 100 µM (inactive) | GI50 (OVCAR-8): > 100 µM (inactive) | GI50 (RPMI-8226): > 100 µM (inactive) | GI50 (SF-295): > 100 µM (inactive) | GI50 (SN12C): > 100 µM (inactive) | GI50 (SNB-75): 82.4 µM (inactive) | GI50 (U-251): > 100 µM (inactive)

O=C1O/C(=C(\Br)c2cccc3ccccc23)c2ccccc21
GI50 (786-0): 17.4 µM (inactive) | GI50 (ACHN): 34.2 µM (inactive) | GI50 (HCT-15): 31.3 µM | GI50 (LOX IMVI): 73.6 µM (inactive) | GI50 (NCI-H522): 16 µM (inactive) | GI50 (OVCAR-3): 26.8 µM (inactive) | GI50 (OVCAR-4): 16.5 µM (inactive) | GI50 (OVCAR-8): > 43.7 µM (inactive) | GI50 (RPMI-8226): 22.2 µM (inactive) | GI50 (SF-295): > 38.1 µM (inactive) | GI50 (SK-MEL-28): > 35.1 µM (inactive) | GI50 (SN12C): 21.3 µM (inactive) | GI50 (SNB-75): > 50.4 µM (inactive) | GI50 (U-251): > 100 µM (inactive)

N/N=C1\C(=O)N(c2ccc(Cl)cc2Cl)C(=O)C(=O)C1c1nc2ccccc2o1 (centres undefined)
GI50 (786-0): > 100 µM (inactive) | GI50 (ACHN): > 100 µM (inactive) | GI50 (CAKI-1): > 100 µM (inactive) | GI50 (HCT-15): > 100 µM | GI50 (LOX IMVI): 97.7 µM (inactive) | GI50 (NCI-H522): > 100 µM (inactive) | GI50 (OVCAR-3): > 100 µM (inactive) | GI50 (OVCAR-4): > 100 µM (inactive) | GI50 (OVCAR-8): > 100 µM (inactive) | GI50 (RPMI-8226): > 100 µM (inactive) | GI50 (SF-295): > 100 µM (inactive) | GI50 (SK-MEL-28): > 100 µM (inactive) | GI50 (SN12C): > 100 µM (inactive) | GI50 (SNB-75): > 100 µM (inactive) | GI50 (U-251): > 100 µM (inactive)

Cc1ccc2nc(NC(=O)C(=O)C(C(=O)c3ccc4ccccc4c3)C3OC(=O)c4ccccc43)sc2c1 (centres undefined)
GI50 (786-0): 6.15 µM (inactive) | GI50 (ACHN): 16.5 µM (inactive) | GI50 (CAKI-1): 12.2 µM (inactive) | GI50 (HCT-15): > 10 µM | GI50 (LOX IMVI): 10.2 µM (inactive) | GI50 (NCI-H522): 12 µM (inactive) | GI50 (OVCAR-3): 22.9 µM (inactive) | GI50 (OVCAR-4): 22.7 µM (inactive) | GI50 (OVCAR-8): 7.74 µM (inactive) | GI50 (RPMI-8226): 9.25 µM (inactive) | GI50 (SF-295): 4.61 µM (inactive) | GI50 (SK-MEL-28): 5.21 µM (inactive) | GI50 (SN12C): 13.5 µM (inactive) | GI50 (U-251): 2.81 µM (inactive)

COc1ccc(-c2cc(=O)c3ccccc3[nH]2)c(OC)c1
GI50 (786-0): > 100 µM (inactive) | GI50 (ACHN): > 100 µM (inactive) | GI50 (HCT-15): > 100 µM | GI50 (LOX IMVI): > 100 µM (inactive) | GI50 (NCI-H522): > 100 µM (inactive) | GI50 (OVCAR-3): > 100 µM (inactive) | GI50 (OVCAR-8): > 100 µM (inactive) | GI50 (RPMI-8226): > 100 µM (inactive) | GI50 (SF-295): > 100 µM (inactive) | GI50 (SK-MEL-28): > 100 µM (inactive) | GI50 (SN12C): > 100 µM (inactive) | GI50 (SNB-75): > 100 µM (inactive) | GI50 (U-251): > 100 µM (inactive)

Source: ChEMBL document CHEMBL1201862, “PubChem BioAssay data set” (2004)
